In ChEMBL document CHEMBL1201862, “PubChem BioAssay data set” (2004):
Blank lines part the entries; values can stand above or below the compound they belong to. Active and inactive are the calls of the source.

Key:
Cytochrome P450 3A4 = Cytochrome P450 3A4 (Homo sapiens, UniProt P08684);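 note: CYP3A4 tested as one member of a cytochrome P450 panel screen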
Cytochrome P450 2C19 = Cytochrome P450 2C19 (Homo sapiens, UniProt P33261); test: Cytochrome panel assay with activity outcomes. Panel member name: p450-cyp2c19 Compounds with AC50 equal or less than 10 uM are considered active; format: functional
Cytochrome P450 2C9 = Cytochrome P450 2C9 (Homo sapiens, UniProt P11712)
[1] = cytotoxicity toward NIH3T3 fibroblasts, dose response, counter-screen, cell-based, ATP luminescence, mouse fibroblasts (AID 2010); format: functional;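 note: cells exposed to compound for about 90 hours before reading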
[2] = inhibitors of intracellular T. cruzi replication, confirmation, NIH3T3 host cells, beta-gal luminescence (AID 2044); format: functional, cell-based;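 note: intracellular parasites grown in NIH/3T3 mouse fibroblasts as host cells; luminescent beta-galactosidase reporter signal from transgenic T. cruzi replicating inside host cells; inhibitors lower the luminescence signal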
[3] = target: T1, Corticotropin-releasing factor receptor 2/Corticotropin-releasing factor-binding protein (Homo sapiens, UniProt P24387+Q13324); test: activators of CRF receptor 2 with binding protein – uHTS hits, confirmation (AID 602473); format: functional; settings: read-out: EC50_Mean
T1 sequence (Q13324 whole entry): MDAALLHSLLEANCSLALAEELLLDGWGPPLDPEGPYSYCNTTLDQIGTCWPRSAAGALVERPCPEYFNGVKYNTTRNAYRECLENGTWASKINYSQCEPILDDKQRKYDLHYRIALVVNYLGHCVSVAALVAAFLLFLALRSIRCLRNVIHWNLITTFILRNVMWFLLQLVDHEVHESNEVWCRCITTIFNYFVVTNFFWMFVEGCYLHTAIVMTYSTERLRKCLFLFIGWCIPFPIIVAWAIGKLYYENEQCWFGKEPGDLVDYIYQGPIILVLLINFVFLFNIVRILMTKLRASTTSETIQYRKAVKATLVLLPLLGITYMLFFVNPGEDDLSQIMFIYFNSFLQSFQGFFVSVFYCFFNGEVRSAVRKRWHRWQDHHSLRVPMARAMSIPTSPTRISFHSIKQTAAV
T1 sequence (P24387 whole entry): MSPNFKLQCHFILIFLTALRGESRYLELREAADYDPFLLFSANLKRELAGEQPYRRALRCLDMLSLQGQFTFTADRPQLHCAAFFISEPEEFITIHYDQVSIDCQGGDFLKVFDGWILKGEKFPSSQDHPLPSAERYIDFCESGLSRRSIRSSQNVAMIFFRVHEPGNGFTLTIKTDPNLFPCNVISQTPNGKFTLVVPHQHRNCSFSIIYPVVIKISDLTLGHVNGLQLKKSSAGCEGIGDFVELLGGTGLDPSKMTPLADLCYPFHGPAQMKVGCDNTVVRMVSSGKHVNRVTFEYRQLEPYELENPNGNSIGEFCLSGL

[4] = NIH-3T3 fibroblast cytotoxicity, dose response, cytotoxicity control, cell-based, fluorescence, Alamar Blue, secondary assay (AID 2327); format: functional;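 note: NIH-3T3 mouse fibroblasts cultured with fluconazole at 8 µg/mL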
[5] = C. albicans growth with fluconazole, confirmation, fluorescence, retest (AID 2467); format: functional, cell-based
Cytochrome P450 1A2 = target: T2, Cytochrome P450 1A2 (Homo sapiens, UniProt P05177);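 note: PubChem cytochrome P450 panel assay, CYP1A2 panel member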
T2 sequence (P05177 whole entry): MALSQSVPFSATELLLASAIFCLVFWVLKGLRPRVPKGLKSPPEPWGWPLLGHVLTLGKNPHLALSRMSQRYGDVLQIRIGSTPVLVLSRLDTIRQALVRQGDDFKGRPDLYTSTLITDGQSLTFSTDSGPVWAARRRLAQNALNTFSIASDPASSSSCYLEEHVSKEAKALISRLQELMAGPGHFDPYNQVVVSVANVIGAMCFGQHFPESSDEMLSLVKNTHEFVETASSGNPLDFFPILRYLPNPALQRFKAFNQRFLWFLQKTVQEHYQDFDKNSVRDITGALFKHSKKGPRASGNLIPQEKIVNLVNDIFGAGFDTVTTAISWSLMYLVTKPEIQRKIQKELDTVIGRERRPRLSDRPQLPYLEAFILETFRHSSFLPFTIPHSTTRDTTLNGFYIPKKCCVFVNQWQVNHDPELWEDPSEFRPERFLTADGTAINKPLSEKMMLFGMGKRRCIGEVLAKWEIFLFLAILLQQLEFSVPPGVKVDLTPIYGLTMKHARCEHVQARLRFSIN

Chain of Cytochrome P450 2C19 (P33261 whole entry): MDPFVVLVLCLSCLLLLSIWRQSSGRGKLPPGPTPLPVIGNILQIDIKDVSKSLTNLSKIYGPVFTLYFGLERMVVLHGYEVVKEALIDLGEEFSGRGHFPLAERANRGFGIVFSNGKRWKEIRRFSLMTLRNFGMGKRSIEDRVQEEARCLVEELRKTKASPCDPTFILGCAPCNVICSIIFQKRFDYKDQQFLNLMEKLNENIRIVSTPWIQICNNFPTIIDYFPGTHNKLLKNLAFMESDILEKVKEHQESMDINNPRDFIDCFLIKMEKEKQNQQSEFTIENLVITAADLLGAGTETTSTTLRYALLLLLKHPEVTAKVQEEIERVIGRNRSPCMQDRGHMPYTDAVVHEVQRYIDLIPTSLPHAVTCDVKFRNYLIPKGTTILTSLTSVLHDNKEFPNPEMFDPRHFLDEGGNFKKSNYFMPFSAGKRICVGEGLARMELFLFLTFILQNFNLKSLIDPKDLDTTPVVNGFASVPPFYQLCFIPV
Chain of Cytochrome P450 2C9 (P11712 whole entry): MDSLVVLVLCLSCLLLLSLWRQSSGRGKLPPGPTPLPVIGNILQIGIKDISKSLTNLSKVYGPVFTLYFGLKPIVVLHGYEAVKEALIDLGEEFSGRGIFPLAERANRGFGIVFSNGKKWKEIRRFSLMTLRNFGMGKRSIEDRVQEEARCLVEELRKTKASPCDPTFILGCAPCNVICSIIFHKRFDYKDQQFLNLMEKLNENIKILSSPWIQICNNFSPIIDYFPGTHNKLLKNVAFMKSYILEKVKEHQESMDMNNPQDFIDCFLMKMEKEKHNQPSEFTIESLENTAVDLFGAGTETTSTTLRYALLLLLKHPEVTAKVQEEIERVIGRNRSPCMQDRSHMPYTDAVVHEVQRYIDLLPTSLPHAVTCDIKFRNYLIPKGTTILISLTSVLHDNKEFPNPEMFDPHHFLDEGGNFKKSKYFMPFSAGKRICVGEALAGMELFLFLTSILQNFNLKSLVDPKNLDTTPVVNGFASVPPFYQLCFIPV
Chain of Cytochrome P450 3A4 (P08684 whole entry): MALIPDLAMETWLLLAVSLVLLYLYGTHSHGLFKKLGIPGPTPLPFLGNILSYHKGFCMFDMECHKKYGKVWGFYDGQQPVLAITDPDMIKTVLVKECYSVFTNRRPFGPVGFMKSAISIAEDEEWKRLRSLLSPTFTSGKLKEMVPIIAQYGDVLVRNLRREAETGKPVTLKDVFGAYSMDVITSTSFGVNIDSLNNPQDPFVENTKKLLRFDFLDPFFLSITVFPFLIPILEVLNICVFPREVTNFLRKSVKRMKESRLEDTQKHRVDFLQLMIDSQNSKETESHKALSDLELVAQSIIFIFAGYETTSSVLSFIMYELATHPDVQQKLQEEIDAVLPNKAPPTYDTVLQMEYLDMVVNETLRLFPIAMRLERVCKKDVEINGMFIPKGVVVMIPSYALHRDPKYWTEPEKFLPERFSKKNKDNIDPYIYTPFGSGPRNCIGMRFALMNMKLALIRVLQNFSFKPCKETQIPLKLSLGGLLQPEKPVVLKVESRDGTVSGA

Compound: Cc1ccc(C)c(S(=O)(=O)NC(CC(C)C)C(=O)O)c1 (stereo not given)
AC50 (Cytochrome P450 2C19; read-out: AC50): 39.8 µM (inconclusive)

Compound: O=C(C1=C[C@@H](c2csc3ccccc23)C[C@@H](OCc2ccc(CO)cc2)O1)N1CCN(Cc2ccccc2)CC1
EC50 [1]: > 60 µM (not active)
EC50 [2]: 0.888 µM (active)

Compound: Cc1ccc(S(=O)(=O)c2nc(NCc3ccc4c(c3)OCO4)sc2Cl)cc1
EC50 [1]: > 60 µM (not active)
EC50 [2]: 0.39 µM (active)

Compound: O=C(/C=C\c1ccc(-c2cccc([N+](=O)[O-])c2)o1)N1CCOCC1
EC50 [4]: > 150 µM (inactive)
EC50 [5]: > 38 µM (not active)

Compound: CC[N+](CC)(CC)CCOc1ccc(/C=C\c2ccccc2)cc1
AC50 (Cytochrome P450 1A2): 31.6 µM (inconclusive)

Compound: Cc1onc(-c2ccccc2)c1CNC(=O)Nc1ccc(C(F)(F)F)cc1
EC50 [1]: > 60 µM (not active)
EC50 [2]: 4.33 µM (active)

Compound: O=[N+]([O-])c1ccc2[nH]c(-[n+]3c(-c4ccccc4)cc(-c4ccccc4)cc3-c3ccccc3)nc2c1
EC50 [1]: > 60 µM (not active)
EC50 [2]: 1.18 µM (active)

Compound: COc1ccccc1CN1CCCC2(CCN(C(=O)Oc3ccccc3)CC2)C1
AC50 (Cytochrome P450 3A4): 15.8 µM (inconclusive)

Compound: Cc1ccc(C(=O)CC(=O)c2ccc(C(C)(C)C)cc2)cc1
EC50 [4]: > 160 µM (inactive)
EC50 [5]: > 38 µM (not active)

Compound: CC(CCc1ccccc1)NC(=O)C(=O)NCCO (stereo not given)
AC50 (Cytochrome P450 2C9): 0.794 µM (inconclusive)

Compound: O=C(Nc1cccc(C(F)(F)F)c1)c1cccnc1
EC50 [4]: > 160 µM (inactive)
EC50 [5]: 4.39 µM (active)

Compound: CC1CCN(CCOc2cc(Cl)ccc2Cl)CC1
AC50 (Cytochrome P450 2C9): 0.891 µM (inconclusive)

Compound: CC(C)CNS(=O)(=O)c1cc(C(=O)N2CC(C)OC(C)C2)c(Cl)cc1Cl (stereo not given)
AC50 (Cytochrome P450 2C19; read-out: AC50): 25.1 µM (inconclusive)
AC50 (Cytochrome P450 2C9): 25.1 µM (inconclusive)

Compound: Cc1c(Nc2scc(-c3ccccc3)[n+]2-c2ccccc2)c(=O)n(-c2ccccc2)n1C
EC50 [4]: 18 µM (active)
EC50 [5]: 0.111 µM (active)

Compound: C=CCc1cccc(/C=N/NC(=O)c2ccccc2Br)c1O
EC50 [1]: 8.77 µM (active)
EC50 [2]: 1.72 µM (active)

Compound: NC(=S)N/N=C/c1ccc(-n2nncc2-c2ccc(Cl)cc2)cc1
EC50 [1]: > 60 µM (not active)
EC50 [2]: 1.64 µM (active)

Compound: OCC[n+]1ccc(/C=C/c2c[nH]c3ccccc23)cc1
EC50 [3]: 8.55 µM (active)

Compound: N=C(N)NCc1cccc(I)c1 [IOBENGUANE]
AC50 (Cytochrome P450 1A2): 12.6 µM (inconclusive)

Second part, the compound after the results:

AC50 (Cytochrome P450 3A4): 3.98 µM (inconclusive)
Compound: Cc1ccccc1CN1C2=NCCN2C(=O)C2=C1CCN(Cc1ccccc1)C2

AC50 (Cytochrome P450 2C19): inconclusive
AC50 (Cytochrome P450 2C9): 17.8 µM (inconclusive)
Compound: CCC(=O)Nc1cccc(NC(=O)c2cccc([N+](=O)[O-])c2)c1

EC50 [3]: > 53 µM (inactive)
Compound: Cc1ccc2c3ncn(Cc4ccco4)c(O)c-3nc2c1

EC50 [3]: 10.2 µM (active)
Compound: CC1=CC(=C(C#N)c2nc3ccccc3s2)C=C(C)N1c1ccc(F)cc1F

AC50 (Cytochrome P450 2C9): 31.6 µM (inconclusive)
Compound: Cc1ccc(C(=O)N2CCN(c3cc(O)nnc3-c3ccccc3)CC2)cc1

AC50 (Cytochrome P450 2C9): 7.94 µM (inconclusive)
Compound: Cc1cccc2c1Oc1ccccc1[C@@H]2NC(=O)c1ccc([N+](=O)[O-])cc1

AC50 (Cytochrome P450 2C19; read-out: AC50): 39.8 µM (inconclusive)
Compound: COCCn1c(=O)c(-c2cccc(C#N)c2)nc2cnc(Oc3ccccc3)nc21

AC50 (Cytochrome P450 1A2): 3.16 µM (inconclusive)
AC50 (Cytochrome P450 2C9): 25.1 µM (inconclusive)
Compound: O=C(c1ccc2c(=O)n(Cc3ccco3)c(=S)[nH]c2c1)N1CCN(c2ccccc2)CC1

AC50 (Cytochrome P450 2C19; read-out: AC50): 35.5 µM (inconclusive)
AC50 (Cytochrome P450 2C9): 31.6 µM (inconclusive)
Compound: COc1ccccc1N(CC(=O)NCC1CCCO1)C(=O)CNS(=O)(=O)c1ccc(C)cc1 (stereo not given)

AC50 (Cytochrome P450 2C19; read-out: AC50): 39.8 µM (inconclusive)
AC50 (Cytochrome P450 2C9): 12.6 µM (inconclusive)
Compound: O=C(COC(=O)c1cnccn1)NCc1ccccc1

AC50 (Cytochrome P450 3A4): 22.4 µM (inconclusive)
Compound: COc1ccccc1C(=O)O/N=C1/CCCc2c1ccc(OC)c2[N+](=O)[O-]

AC50 (Cytochrome P450 2C19; read-out: AC50): 15.8 µM (inconclusive)
Compound: O=C1NCCc2c1[nH]c1ccccc21
